Results taken from EP4717267A1, “SYNERGISTIC COMBINATION FOR TREATING CANCER” (FUNDACION UNIVERSITARIA SAN ANTONIO (UCAM), priority 2023, dated 2024).

What was measured:
A549 cells = experiment: MTT colorimetric cytotoxicity assay on A549 cells, single drugs and two-drug combinations, with combination index (CompuSyn); format: cell-based; details: Homo sapiens, A549, 72 hours, read-out: IC50 value for cancer cell survival
Protocol: The cancer cell lines (MCF-7, A549 and U-87MG) were cultured as monolayers in Dulbecco's modified Eagle's medium supplemented with 10% (v/v) fetal bovine serum and 1% (v/v) penicillin/streptomycin mixture (10,000 U/mL penicillin and 10 mg/mL streptomycin) in a 100% humidified atmosphere of 5% CO2 and 95% air at 37 °C. […] Cell cultures were kept in the exponential growth phase by regularly passaging cells three times a week with 0.25% trypsin/EDTA mixture.
The cytotoxic activity of the test compounds against cancer cell lines was tested using the standard MTT (3-(4,5-dimethylthiazol-2-yl)-2,5-diphenyltetrazolium bromide) colorimetric assay. […] Briefly, exponentially proliferating cells were seeded into each well of a 96-well microplate (about 5×10^3 cells/well). After 24 hours, test compounds at various concentrations were added to the respective wells, and the cells were incubated for another 72 hours. After incubating the cells with the test compounds, the medium was removed and MTT solution with a final concentration of 0.5 mg/mL was added. After 4 hours of incubation, the MTT solution was replaced with DMSO to dissolve the resulting violet formazan crystals in metabolically viable cells. Plates were gently shaken at room temperature until the formazan was completely dissolved and read at 540 nm using a microplate reader. […] The experiment was repeated at least three times under the same conditions. […] IC50 values were calculated using GraphPad Prism software. […] The test drugs were administered to the cells at the same time.
The combination index (CI) method - a dimensionless quantity used to determine and quantify the type of drug interaction - for binary combinations was calculated using CompuSyn software based on the equation: (CI)x = ((D)1)/((Dx)1) + ((D)2)/((Dx)2) = ((D)1)/((Dm)1 ([(fa)/((1−fa))])^((1)/(m1))) + ((D)2)/((Dm)2 ([(fa)/((1−fa))])^((1)/(m2))) [formula] […]
All data are expressed as mean±standard deviation (SD) and presented as a percentage of control (untreated cells) taken as 100%, n=3 (or more). […]

MCF-7 cells = experiment: MTT colorimetric cytotoxicity assay on MCF-7 cells, single drugs and two-drug combinations, with combination index (CompuSyn); format: cell-based, Human; details: for IC50: Homo sapiens, MCF7, read-out: IC50 concentration, which inhibits MCF-7 cell proliferation by 50% compared to control cells, single drug, MCF-7, 72 hours, MTT; for effect of the analog in combination with Doxorubicin on the anticancer activity of Doxorubicin: MCF-7, combination with Doxorubicin; for type of drug interaction with Doxorubicin (combination index): MCF-7
Protocol: (§1) IC50 values were calculated using GraphPad Prism software.
(§2) This equation defines "Synergism" (CI < 1), "Additive effect" (CI = 1) and "Antagonism" (CI > 1).

U-87MG cells = experiment: MTT colorimetric cytotoxicity assay on U-87MG cells, single drugs and two-drug combinations, with combination index (CompuSyn); format: cell-based, Human; details: for IC50: Homo sapiens, single drug, U-87MG, 72 hours, MTT, read-out: IC50 value (cell survival)
Protocol: Glimepiride and its analogs were first prepared as a stock solution in DMSO, and then the drugs were dissolved fresh in culture medium enriched with Tween 80 (final concentration 0.05%).
Human cancer cells (MCF-7, A549 and U-87MG) and normal endothelial cells (HMEC-1) were obtained from American Type Cell Culture (Rockville, MD). The cancer cell lines (MCF-7, A549 and U-87MG) were cultured as monolayers in Dulbecco's modified Eagle's medium supplemented with 10% (v/v) fetal bovine serum and 1% (v/v) penicillin/streptomycin mixture (10,000 U/mL penicillin and 10 mg/mL streptomycin) in a 100% humidified atmosphere of 5% CO2 and 95% air at 37 °C. Normal endothelial cells (HMEC-1) were cultured in MCDB 131 medium supplemented with 10% (v/v) fetal bovine serum, 10 ng/mL EGF, 1 µg/mL hydrocortisone and 1% (v/v) penicillin/streptomycin solution, in a humidified atmosphere of 5% CO2 and 95% air at 37 °C. Cell cultures were kept in the exponential growth phase by regularly passaging cells three times a week with 0.25% trypsin/EDTA mixture.
as §1, §2
All data are expressed as mean±standard deviation (SD) and presented as a percentage of control (untreated cells) taken as 100%, n=3 (or more). Sample size was estimated for Type I and Type II statistical errors of […], respectively. Normality of the data was checked with the Shapiro-Wilk test, and the homogeneity of variance was checked with the Levene or Brown-Forsythe test. The significance of differences between pairs of means was estimated using one-way ANOVA and Tukey's post-hoc test. For each analysis, the post-hoc power of the used tests was checked. Statistical power below 80% was considered a null result, and constructive conclusions were not made. All statistics were calculated using […] (StatSoft, USA) or GraphPad Prism software.

[1] = test system: MDA-MB-231 breast carcinoma cells; details: Glibenclamide alone; inhibits G1-S phase progression without cell death or differentiation; cited from earlier work
[2] = Glimepiride analog 100-500 µM in combination with Doxorubicin 0.225, 0.450, 0.900 µM

Row | Compound | effect of the analog in combination with Doxorubicin on the anticancer activity of Doxorubicin (MCF-7 cells) | type of drug interaction with Doxorubicin (combination index) (MCF-7 cells; [2]) | further results
1 | CCCCCOC(=O)Nc1nc(=O)n([C@@H]2O[C@H](C)[C@@H](O)[C@H]2O)cc1F [CAPE, pentyl N-[1-[(2R,3R,4S,5R)-3,4-dihydroxy-5-methyloxolan-2-yl]-5-fluoro-2-oxopyrimidin-4-yl]carbamate] | – | – | IC50 (A549 cells): 60 nM; IC50 (MCF-7 cells): 180 nM; IC50 (U-87MG cells): 40 nM
2 | CCCCNC(=O)NS(=O)(=O)c1ccc(N)cc1 [Carbutamide] | beneficial effect | – | –
3 | CCCNC(=O)NS(=O)(=O)c1ccc(Cl)cc1 [Chlorpropamide, 1-(4-chlorophenyl)sulfonyl-3-propylurea] | beneficial effect | strong or very strong synergy | –
4 | CC(=O)O[C@@]12CO[C@@H]1C[C@H](O)[C@@]1(C)C(=O)[C@H](O)C3=C(C)[C@@H](OC(=O)[C@H](O)[C@@H](NC(=O)OC(C)(C)C)c4ccccc4)C[C@@](O)([C@@H](OC(=O)c4ccccc4)[C@H]21)C3(C)C [DOCE, [(1S,2S,3R,4S,7R,9S,10S,12R,15S)-4-acetyloxy-1,9,12 trihydroxy-15-[(2R,3S)-2-hydroxy-3-[(2-methylpropan-2-yl)oxycarbonylamino]-3 phenylpropanoyl]oxy-10,14,17,17-tetramethyl-11-oxo-6 oxatetracyclo[11.3.1.03,1 0.04, 7]heptadec-13-en-2-yl] benzoate] | – | – | IC50 (A549 cells): 150 nM; IC50 (MCF-7 cells): 240 nM; IC50 (U-87MG cells): 80 nM
5 | COc1cccc2c1C(=O)c1c(O)c3c(c(O)c1C2=O)C[C@@](O)(C(=O)CO)C[C@@H]3O[C@H]1C[C@H](N)[C@H](O)[C@H](C)O1 [Doxorubicin, (7S,9S)-7-[(2R,4S,5S,6S)-4-amino-5-hydroxy-6 methyloxan-2-yl]oxy-6,9,11-trihydroxy-9-(2-hydroxyacetyl)-4-methoxy-8,10-dihydro-7H tetracene-5,12-dione] | – | – | U-87MG cell survival (U-87MG cells; 0.52 µM Doxorubicin alone): 75.6%
6 | COc1ccc(Cl)cc1C(=O)NCCc1ccc(S(=O)(=O)NC(=O)NC2CCCCC2)cc1 [Glibenclamide] | beneficial effect | strong or very strong synergy | effect in MDA-MB-231 cells [1]: cytostatic effect
7 | Cc1ccc(S(=O)(=O)NC(=O)NN2CC3CCCC3C2)cc1 (centres unmarked) [Gliclazide, 1-(3,3a,4,5,6,6a-hexahydro-1H-cyclopenta[c]pyrrol-2-yl)-3-(4-methylphenyl)sulfonylurea] | beneficial effect | strong or very strong synergy | –
8 | CCC1=C(C)CN(C(=O)NCCc2ccc(S(=O)(=O)NC(=O)NC3CCC(C)CC3)cc2)C1=O (centres unmarked) [Glimepiride, 4-ethyl-3-methyl-N-[2-[4-[(4-methylcyclohexyl)carbamoylsulfamoyl]phenyl]ethyl]-5-oxo-2H-pyrrole-1-carboxamide] | – | – | IC50 (A549 cells): 389000 ± 4490 nM; IC50 (MCF-7 cells): 186000 ± 7020 nM; IC50 (U-87MG cells): 149000 ± 12200 nM
9 | Cc1cnc(C(=O)NCCc2ccc(S(=O)(=O)NC(=O)NC3CCCCC3)cc2)cn1 [Glipizide, N-[2-[4-(cyclohexylcarbamoylsulfamoyl)phenyl]ethyl]-5-methylpyrazine-2-carboxamide] | beneficial effect | – | –
10 | COc1ccc2c(c1)C(=O)N(CCc1ccc(S(=O)(=O)NC(=O)NC3CCCCC3)cc1)C(=O)C2(C)C [Gliquidone] | beneficial effect | not every combination of concentrations of Doxorubicin and Gliquidone produce a synergistic effect | type of drug interaction with Doxorubicin (combination index) (MCF-7 cells; 100 µM analog in combination with Doxorubicin 0.225, 0.450, 0.900 µM): additive effect or slight antagonism; type of drug interaction with Doxorubicin (combination index) (MCF-7 cells; other dose combinations (analog above 100 µM) with Doxorubicin): synergistic effects
11 | Cc1ccc(S(=O)(=O)NC(=O)NN2CCCCCC2)cc1 [Tolazamide, 1-(azepan-1-yl)-3-(4-methylphenyl)sulfonylurea] | beneficial effect | strong or very strong synergy | –
12 | CCCCNC(=O)NS(=O)(=O)c1ccc(C)cc1 [Tolbutamide, 1-butyl-3-(4-methylphenyl)sulfonylurea] | beneficial effect | – | –
